Test results published in patent US10280170B2, “Substituted 4,5,6,7-tetrahydro-pyrazolo[1,5-a]pyrazine derivatives and 5,6,7,8-tetrahydro-4H-pyrazolo[1,5-a][1,4]diazepine derivatives as Ros1 inhibitors” (Janssen Pharmaceutica NV, priority 2014, dated 2019).
Where two headings read alike, the source gives them in different places.

Key:
[1] = target: Ba/F3 cells containing Ros1 with a mutation at the gatekeeper residue (L2026M) (Homo sapiens, UniProt P08922, L2026M, cells depend on it, form not given); assay: Ba/F3-Ros1 cell proliferation assay, L2026M gatekeeper mutant; type: cell-based, murine; conditions: without IL-3
Chain of Ba/F3 cells containing Ros1 with a mutation at the gatekeeper residue (L2026M) (P08922 whole entry L2026M, form open): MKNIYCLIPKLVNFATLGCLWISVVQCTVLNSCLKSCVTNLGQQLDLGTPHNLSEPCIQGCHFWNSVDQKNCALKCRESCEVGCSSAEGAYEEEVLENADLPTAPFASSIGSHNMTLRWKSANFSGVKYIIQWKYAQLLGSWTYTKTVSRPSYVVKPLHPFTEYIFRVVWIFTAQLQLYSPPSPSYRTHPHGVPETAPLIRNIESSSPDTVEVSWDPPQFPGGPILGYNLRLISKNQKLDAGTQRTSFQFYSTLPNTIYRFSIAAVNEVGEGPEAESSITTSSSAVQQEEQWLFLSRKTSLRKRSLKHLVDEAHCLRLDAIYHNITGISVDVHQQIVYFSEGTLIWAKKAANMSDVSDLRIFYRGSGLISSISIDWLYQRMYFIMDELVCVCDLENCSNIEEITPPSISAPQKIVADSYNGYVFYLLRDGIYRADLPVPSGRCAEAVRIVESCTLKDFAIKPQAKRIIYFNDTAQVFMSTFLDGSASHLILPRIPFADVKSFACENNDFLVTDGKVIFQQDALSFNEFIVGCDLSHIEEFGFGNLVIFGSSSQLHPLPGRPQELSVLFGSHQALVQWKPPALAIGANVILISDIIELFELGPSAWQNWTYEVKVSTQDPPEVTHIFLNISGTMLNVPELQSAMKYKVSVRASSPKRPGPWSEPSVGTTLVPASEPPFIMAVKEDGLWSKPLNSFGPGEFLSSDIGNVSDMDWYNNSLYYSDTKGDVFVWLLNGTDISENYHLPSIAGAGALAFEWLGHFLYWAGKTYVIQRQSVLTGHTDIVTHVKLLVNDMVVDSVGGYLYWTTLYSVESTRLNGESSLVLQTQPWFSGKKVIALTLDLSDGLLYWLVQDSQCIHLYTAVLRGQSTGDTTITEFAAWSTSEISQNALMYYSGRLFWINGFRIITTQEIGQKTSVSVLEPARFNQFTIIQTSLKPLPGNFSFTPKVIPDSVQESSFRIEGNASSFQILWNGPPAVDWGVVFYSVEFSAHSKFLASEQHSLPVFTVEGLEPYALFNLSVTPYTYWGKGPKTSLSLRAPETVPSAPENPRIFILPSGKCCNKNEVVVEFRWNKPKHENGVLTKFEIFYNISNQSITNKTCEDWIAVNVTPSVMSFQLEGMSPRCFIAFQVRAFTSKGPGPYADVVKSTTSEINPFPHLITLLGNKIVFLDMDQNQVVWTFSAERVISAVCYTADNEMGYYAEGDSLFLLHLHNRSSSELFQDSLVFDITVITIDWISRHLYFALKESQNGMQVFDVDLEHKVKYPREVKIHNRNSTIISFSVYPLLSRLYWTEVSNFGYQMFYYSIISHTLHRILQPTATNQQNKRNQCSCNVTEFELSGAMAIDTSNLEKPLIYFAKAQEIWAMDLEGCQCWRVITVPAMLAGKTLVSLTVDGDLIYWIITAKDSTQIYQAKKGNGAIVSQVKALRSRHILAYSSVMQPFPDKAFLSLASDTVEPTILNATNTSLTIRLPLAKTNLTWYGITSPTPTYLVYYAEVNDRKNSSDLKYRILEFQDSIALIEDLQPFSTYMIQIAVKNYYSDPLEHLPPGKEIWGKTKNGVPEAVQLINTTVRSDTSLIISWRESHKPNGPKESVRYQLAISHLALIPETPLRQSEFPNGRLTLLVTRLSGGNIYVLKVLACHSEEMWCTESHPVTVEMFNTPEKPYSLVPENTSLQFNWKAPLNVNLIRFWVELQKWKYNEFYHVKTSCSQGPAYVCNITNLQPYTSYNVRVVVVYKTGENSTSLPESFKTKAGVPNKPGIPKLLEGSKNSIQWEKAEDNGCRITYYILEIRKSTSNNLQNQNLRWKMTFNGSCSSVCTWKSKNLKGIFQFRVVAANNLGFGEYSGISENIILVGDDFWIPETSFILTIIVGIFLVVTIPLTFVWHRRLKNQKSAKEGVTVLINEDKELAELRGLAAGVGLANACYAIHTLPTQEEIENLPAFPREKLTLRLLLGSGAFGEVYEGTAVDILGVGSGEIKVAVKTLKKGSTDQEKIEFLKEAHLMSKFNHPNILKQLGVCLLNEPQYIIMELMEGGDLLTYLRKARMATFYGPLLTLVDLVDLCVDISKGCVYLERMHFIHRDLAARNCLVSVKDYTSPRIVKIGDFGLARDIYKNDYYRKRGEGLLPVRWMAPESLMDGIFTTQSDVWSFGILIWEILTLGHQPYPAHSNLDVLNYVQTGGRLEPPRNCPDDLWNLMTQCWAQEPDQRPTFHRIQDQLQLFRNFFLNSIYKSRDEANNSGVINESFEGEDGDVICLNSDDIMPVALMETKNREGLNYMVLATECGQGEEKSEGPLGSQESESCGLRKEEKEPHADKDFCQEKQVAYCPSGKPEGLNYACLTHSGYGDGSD
Procedure, shortened: (§1)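 Ba/F3 cells expressing wild-type, L2026M or G2032R Ros1, 20000 cells/well in phenol red-free RPMI-1640 with 10% FBS, 2 mM L-glutamine, exposed to compound for 24 h at 37 °C, 5% CO2. Viability read by Alamar Blue (resazurin) fluorescence, ex 540/em 590 nm, after 4 h further incubation.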

[2] = test system: Ros pY2274 in HCC78 cells; assay: pROS1 immunofluorescence assay in HCC78 cells; type: cell-based; conditions: Homo sapiens, read-out: HCC78-pRos1 pIC50 (converted)
Method: pROS1 Immunofluorescence Assay in HCC78 Cells
Approximately 20000 HCC78 non-small cell lung cancer cells in 180 μl of cell culture medium (RPMI-1640, 10% FBS, 2 mM L-Glutamine, 10 mM Hepes, 1 mM sodium pyruvate, 4.5 g/L glucose, 1.5 g/L sodium bicarbonate, 25 μg/ml Gentamycin) were seeded in each well of a 96-well polystyrene, poly-D-lysine coated plate and incubated at 37° C. and 5% CO2. After 24 hours, compounds were diluted in cell culture medium from which 20 μl was added to the wells containing cells and incubated for 4 hours at 37° C. and 5% CO2. The medium was removed and the cells were fixed by adding 100 μl of 5% formaldehyde in TBS (tris-buffered saline) (50 mM Tris.HCl, pH 7.4, 150 mM NaCl) and incubating for 15 minutes at room temperature. The formaldehyde was removed and replaced with methanol for 10 minutes at room temperature, after which the cells were washed 3 times with TBS containing 1% Triton X-100 and incubated in Odyssee (Li-Cor) blocking buffer for 1 hour at room temperature. The cells were then incubated with the primary rabbit antibody directed against Ros pY2274 (cst-3078) diluted 1/200 in blocking buffer for 24 hours at room temperature. The cells were washed three times with TBS containing 0.1% Triton X-100 and incubated with a secondary anti-rabbit antibody conjugated to the fluorescent dye Alexafluor 680 in blocking buffer for 1 hour at room temperature. The cells were washed three times with TBS containing 0.1% Triton X-100 and left to dry before measuring RFUs (Relative Fluorescence Units) at 700 nm using a fluorescence imager.
The same experiment was performed using total Ros1 antibody (sc-6347) diluted 1/1000 instead of Ros1 pY2274 antibody and an anti-goat antibody conjugated to IRDye800cw as a secondary antibody. RFUs were measured at […]. The signals from total Ros1 detection were used to normalize the Ros1 pY2274 values.

[3] = target: T1, Ba/F3 cells containing Ros1 wild-type protein (Homo sapiens, UniProt P08922, cells depend on it, form not given); assay: Ba/F3-Ros1 cell proliferation assay, wild-type Ros1; type: cell-based, murine; conditions: without IL-3
T1 construct: The background only speaks of 'a number of different unrelated proteins' and names SLC34A2-ROS1 for HCC78 cells
T1 sequence (P08922 whole entry, stated change not applied): as the sequence (P08922 whole entry L2026M, form open) above, with M2026L counted along it
Procedure, shortened: as §1

[4] = test system: HCC78 non-small cell lung cancer cells; assay: HCC78 cell proliferation assay; type: cell-based; conditions: Homo sapiens, HCC78, 96 h, read-out: HCC-78 PROL pEC50 (converted)
Procedure, shortened: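 HCC78 NSCLC cells (~1000/well) in RPMI-1640 with 10% FBS were treated 24 h after seeding and exposed to compound for 4 days at 37 °C. Viability was read by MTT, with absorbance at 538 nm after DMSO/glycine solubilization.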

[5] = test system: Ba/F3 cells containing Ros1 wild-type protein + IL-3; assay: Ba/F3-Ros1 cell proliferation counter-screen, wild-type protein in the presence of 10 ng/ml murine IL-3; type: cell-based; conditions: Mus musculus, BaF3, 24 h, read-out: BaF3-ROS1 + IL3 pIC50 (converted)
Procedure, shortened: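 IL-3 rescue counter-screen: WT Ros1 Ba/F3, 10 ng/ml mIL-3, 24 h compound exposure, 37 °C/5% CO2; Alamar Blue added 4 h, RFU ex540/em590.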

[6] = target: T2, Ros1 enzyme (Homo sapiens, UniProt P08922); assay: Ros1 enzymatic assay; type: biochemical; conditions: Ros1 enzymatic assay; read-out: ROS1 pIC50 (converted)
T2 construct: 0.5 μg/ml Ros1 enzyme
T2 sequence (P08922 28-2347): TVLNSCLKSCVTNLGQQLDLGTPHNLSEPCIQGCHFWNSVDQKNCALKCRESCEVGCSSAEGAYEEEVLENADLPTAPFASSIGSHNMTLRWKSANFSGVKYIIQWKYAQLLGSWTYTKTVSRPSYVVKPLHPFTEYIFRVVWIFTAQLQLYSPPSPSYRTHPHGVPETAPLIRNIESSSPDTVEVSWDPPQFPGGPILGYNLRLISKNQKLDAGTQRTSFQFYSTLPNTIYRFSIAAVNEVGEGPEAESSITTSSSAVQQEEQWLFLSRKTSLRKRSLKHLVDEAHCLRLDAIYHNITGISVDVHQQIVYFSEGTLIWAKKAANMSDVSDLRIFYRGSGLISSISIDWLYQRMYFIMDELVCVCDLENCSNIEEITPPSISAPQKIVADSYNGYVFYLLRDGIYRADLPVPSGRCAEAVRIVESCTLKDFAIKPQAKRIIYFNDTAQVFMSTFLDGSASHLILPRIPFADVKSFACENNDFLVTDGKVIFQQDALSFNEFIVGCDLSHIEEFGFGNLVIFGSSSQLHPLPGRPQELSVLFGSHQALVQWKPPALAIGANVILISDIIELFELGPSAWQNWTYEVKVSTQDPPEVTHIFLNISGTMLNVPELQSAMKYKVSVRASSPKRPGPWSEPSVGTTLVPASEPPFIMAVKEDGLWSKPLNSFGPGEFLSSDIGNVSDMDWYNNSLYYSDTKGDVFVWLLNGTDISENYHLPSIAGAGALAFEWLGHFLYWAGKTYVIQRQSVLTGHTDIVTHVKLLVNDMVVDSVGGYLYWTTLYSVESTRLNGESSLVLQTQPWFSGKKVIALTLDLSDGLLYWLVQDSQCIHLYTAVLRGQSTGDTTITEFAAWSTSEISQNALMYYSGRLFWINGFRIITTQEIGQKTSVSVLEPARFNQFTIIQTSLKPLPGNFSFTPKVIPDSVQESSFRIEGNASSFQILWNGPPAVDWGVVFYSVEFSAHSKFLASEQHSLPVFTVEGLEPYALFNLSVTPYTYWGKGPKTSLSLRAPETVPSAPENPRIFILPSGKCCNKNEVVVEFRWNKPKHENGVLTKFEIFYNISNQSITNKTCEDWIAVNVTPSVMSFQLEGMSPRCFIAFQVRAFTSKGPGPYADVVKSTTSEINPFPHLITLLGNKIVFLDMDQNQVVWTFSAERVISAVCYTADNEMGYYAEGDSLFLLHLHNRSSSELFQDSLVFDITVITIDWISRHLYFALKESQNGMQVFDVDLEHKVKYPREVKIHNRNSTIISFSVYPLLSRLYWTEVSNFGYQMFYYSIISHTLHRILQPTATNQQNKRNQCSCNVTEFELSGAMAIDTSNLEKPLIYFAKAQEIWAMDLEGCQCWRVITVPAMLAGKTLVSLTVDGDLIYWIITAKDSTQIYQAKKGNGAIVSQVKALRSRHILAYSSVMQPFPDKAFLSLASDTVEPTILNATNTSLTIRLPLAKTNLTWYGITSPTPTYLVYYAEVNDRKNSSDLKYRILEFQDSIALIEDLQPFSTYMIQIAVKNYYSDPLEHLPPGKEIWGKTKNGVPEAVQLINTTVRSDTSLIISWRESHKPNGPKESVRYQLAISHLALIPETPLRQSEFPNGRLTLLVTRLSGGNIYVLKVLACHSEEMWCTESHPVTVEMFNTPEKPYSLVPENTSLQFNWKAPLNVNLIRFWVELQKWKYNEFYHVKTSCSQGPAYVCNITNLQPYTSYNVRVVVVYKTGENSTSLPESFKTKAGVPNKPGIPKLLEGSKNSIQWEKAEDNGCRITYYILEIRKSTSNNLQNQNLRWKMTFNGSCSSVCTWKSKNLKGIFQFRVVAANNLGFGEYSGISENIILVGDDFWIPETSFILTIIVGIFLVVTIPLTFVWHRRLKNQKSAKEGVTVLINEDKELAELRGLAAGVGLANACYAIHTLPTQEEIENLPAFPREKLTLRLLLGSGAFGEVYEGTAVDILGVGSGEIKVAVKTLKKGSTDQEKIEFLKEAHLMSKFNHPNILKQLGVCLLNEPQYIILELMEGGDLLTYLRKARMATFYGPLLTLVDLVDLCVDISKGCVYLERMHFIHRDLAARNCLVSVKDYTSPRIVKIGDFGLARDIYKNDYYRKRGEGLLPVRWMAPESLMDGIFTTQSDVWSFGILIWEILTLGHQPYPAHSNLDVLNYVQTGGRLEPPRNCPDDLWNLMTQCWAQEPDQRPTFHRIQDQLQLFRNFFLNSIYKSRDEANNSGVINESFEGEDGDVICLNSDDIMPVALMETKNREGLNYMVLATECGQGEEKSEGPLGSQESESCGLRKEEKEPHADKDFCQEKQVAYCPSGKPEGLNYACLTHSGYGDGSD
Procedure, shortened: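 Radiometric proximity read-out: 33P incorporated into IRS-Tide captured on streptavidin imaging beads and imaged on LEADseeker. Phosphorylation ran 120 min at RT with 20 μM ATP (substrate-mix level) in Tris pH7.5/MgCl2/EGTA/Tween buffer; EDTA stop.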

[7] = HCC78 cells, 4 hours, Ros pY2274 normalized to total Ros1
[8] = counter-screen, wild-type, 10 ng/ml murine IL-3

Structure (SMILES)	Ba/F3 Ros1 L2026M (-IL-3) pIC50 [1]	IC50 ([2]; HCC78, 4 h)	BaF3-ROS1-IL3 pIC50 [3]	melting point	EC50 [4]	CC50 [5]	IC50 [6]	IC50 [2, 7]	EC50 ([4]; HCC78 cells, 4 days, MTT)	CC50 [5, 8]
O=C1NCCn2nc(-c3ccncc3)c(-c3ccc(OCc4ccc(C5CC5)nc4)cc3)c21 [Compound 3]	7.0	0.0794 µM	7.3	276 °C	0.794 µM	> 10 µM	0.0794 µM	–	–	–
O=C1NC2(CC2)Cn2nc(-c3ccncc3)c(-c3ccc(OCc4ccc(C5CC5)cc4)cc3)c21 [Compound 5]	7.5	0.0501 µM	7.6	239 °C	0.316 µM	> 10 µM	0.0251 µM	–	–	–
COc1cc(-c2c(-c3ccncc3)nn3c2C(=O)NCC3)cnc1OCc1ccc(C(C)C)cc1 [Compound 8]	7.8	0.0251 µM	7.9	135 °C	0.0398 µM	> 10 µM	0.00631 µM	–	–	–
CC(C)(O)c1ccc(COc2ccc(-c3c(-c4ccncc4)nn4c3C(=O)NCC4)cc2)cc1 [Compound 9]	6.2	–	6.4	290 °C	–	–	0.631 µM	2.51 µM	2 µM	> 10 µM
CC(C)c1ccc(COc2ccc(-c3c(-c4ccncc4)nn4c3C(=O)NCC4)nc2)cc1 [Compound 12]	6.7	0.501 µM	6.5	84 °C	0.794 µM	> 10 µM	0.316 µM	–	–	–
CC(C)c1ccc(COc2ccc(-c3c(-c4ccncc4)nn4c3C(=O)NCC4)cc2C#N)cc1 [Compound 26]	6.5	0.631 µM	6.6	235 °C	0.794 µM	> 10 µM	0.398 µM	–	–	–
COc1cc(-c2c(-c3ccncc3)nn3c2C(=O)N(C)CC3)ccc1OCc1ccc(C(C)C)cc1 [Compound 33]	7.4	0.0126 µM	7.7	151 °C	< 0.0316 µM	> 10 µM	0.01 µM	–	–	–
CC(C)c1ncc(COc2ccc(-c3c(-c4ccncc4)nn4c3C(=O)NCC4)cc2)cn1 [Compound 103]	–	3.98 µM	6.0	235 °C	2 µM	> 10 µM	1.26 µM	–	–	–
O=C1NCCn2nc(-c3ccncc3)c(-c3ccc(OCc4ccc(C(F)(F)F)cc4)cc3)c21 [Compound 119]	6.9	0.316 µM	7.2	280 °C	0.398 µM	> 10 µM	0.2 µM	–	–	–
O=C1NCCn2nc(-c3ccncc3)c(-c3ccc(OCC#Cc4ccccc4)cc3)c21 [Compound 142]	6.4	0.126 µM	6.9	245 °C	0.398 µM	> 10 µM	0.126 µM	–	–	–
COc1cc(-c2c(-c3ccnc(N)c3)nn3c2C(=O)NCC3)ccc1OCc1ccc(C(C)C)cc1 [Compound 149]	7.4	0.0126 µM	7.6	179 °C	< 0.0316 µM	> 10 µM	0.00794 µM	–	–	–
CC(C)c1ccc(COc2ccc(-c3c(-c4ccncn4)nn4c3C(=O)N(C(C)C)CC4)cc2)cc1 [Compound 160]	7.3	–	7.3	166 °C	–	–	0.0398 µM	0.0316 µM	0.1 µM	> 10 µM
CC(C)c1ccc(COc2ccc(-c3c(-c4ccncn4)nn4c3C(=O)N(CCN)CC4)cc2)cc1 [Compound 165]	6.5	–	6.7	154 °C	–	–	0.2 µM	0.631 µM	1.26 µM	> 10 µM
CC(C)c1ccc(COc2ccc(-c3c(-c4ccncc4)nn4c3CNCC4)cc2)cc1 [Compound 173]	–	–	6.1	194 °C	–	–	0.398 µM	0.316 µM	1.58 µM	> 10 µM
CC(C)c1ccc(COc2ccc(-c3c(-c4ccncc4)nn4c3CN(C)CC4)cc2)cc1 [Compound 185]	–	–	6.3	120 °C	–	–	0.126 µM	0.158 µM	0.794 µM	> 10 µM
CC1Cn2nc(-c3ccncc3)c(-c3ccc(OCc4ccc(C5CC5)cc4)cc3)c2C(=O)N1 (stereo not drawn) [Compound 189]	–	0.0398 µM	7.1	249 °C	0.2 µM	> 10 µM	0.0316 µM	–	–	–
O=C1NCCCn2nc(-c3ccncc3)c(-c3ccc(OCc4ccc(C5CC5)cc4)cc3)c21 [Compound 228]	–	–	6.3	235 °C	–	–	0.398 µM	0.501 µM	2 µM	> 10 µM
